In patent US5506259A, “β-mercapto-propanamide derivatives useful in the treatment of cardiovascular diseases” (Zambon Group S.p.A., priority 1993, dated 1996) one finds IC50 data, which are given here for seven molecules.

The target of test [1] is T1, neutral endopeptidase enzyme (NEP) (Rattus norvegicus, UniProt P07861).
T1 construct: Membranes from kidney cortex were prepared according to the following procedure; from tissue; host or cells: kidney cortex membranes of male Sprague-Dawley rats
T1 sequence (P07861 1-750): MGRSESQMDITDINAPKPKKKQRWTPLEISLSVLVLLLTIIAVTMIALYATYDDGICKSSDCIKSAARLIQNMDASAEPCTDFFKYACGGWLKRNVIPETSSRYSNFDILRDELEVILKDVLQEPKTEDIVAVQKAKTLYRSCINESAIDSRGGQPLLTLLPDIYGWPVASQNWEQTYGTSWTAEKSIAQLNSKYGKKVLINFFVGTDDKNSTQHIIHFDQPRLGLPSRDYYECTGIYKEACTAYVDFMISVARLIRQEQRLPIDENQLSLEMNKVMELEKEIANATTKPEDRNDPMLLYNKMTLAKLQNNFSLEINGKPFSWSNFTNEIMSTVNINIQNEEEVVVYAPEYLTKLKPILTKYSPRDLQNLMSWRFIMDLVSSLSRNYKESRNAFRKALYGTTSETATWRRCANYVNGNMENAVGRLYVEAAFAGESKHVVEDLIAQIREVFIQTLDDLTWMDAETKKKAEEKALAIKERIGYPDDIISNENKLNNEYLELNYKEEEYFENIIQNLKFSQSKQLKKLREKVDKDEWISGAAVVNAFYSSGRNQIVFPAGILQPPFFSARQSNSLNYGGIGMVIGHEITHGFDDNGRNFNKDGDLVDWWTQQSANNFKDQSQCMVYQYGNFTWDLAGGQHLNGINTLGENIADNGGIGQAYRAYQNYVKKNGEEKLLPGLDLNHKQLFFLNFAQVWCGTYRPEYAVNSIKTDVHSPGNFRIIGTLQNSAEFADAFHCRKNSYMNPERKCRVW
Briefly: In vitro NEP-inhibitory activity (inhibition of formation of [^3 H]-Tyr-Gly-Gly from [^3 H][Leu^5 ]-enkephaline in kidney cortex membranes). The settings on record: rat kidney cortex membranes 5 μg/ml protein; [^3 H][Leu^5 ]-enkephaline 15 nM; Bestatin 1 mM; pH 7.4; 20 minutes at 30° C. It is filed as biochemical, male Sprague-Dawley rats. The procedure: The NEP-inhibitory activity of the compounds of formula I was evaluated by means of in vitro tests as percentage of inhibition in the formation of [^3 H]-Tyr-Gly-Gly, a metabolite of [^3 H][Leu^5 ]-enkephaline(see example 26).
a) In vitro NEP-inhibitory activity
The NEP-inhibitory activity in vitro was evaluated according to the method reported in the literature by C. Llorens et al., Eur. J. Pharmacol., 69, (1981), 113-116.
Membranes from kidney cortex were prepared according to the following procedure.
By working at 0°-4° C. the kidneys were removed from killed male Sprague-Dawley rats weighing approximately 300 g.
Cortex was carefully dissected, finely minced and suspended in homogenization buffer (10 mM sodium phosphate pH 7.4 containing 1 mM MgCl2, 30 mM NaCl, 0.02% NaN3) 1:15 weight/volume.
The tissue was then homogenized for 30 seconds using an Ultra-Turrax homogenizer.
Approximately 10 ml of homogenate were layered over 10 ml of sucrose (41% weight/volume) and centrifuged at 31200 rpm for 30 minutes at 4° C. in a fixed angle rotor.
The membranes were collected from the buffer/sucrose interface, washed twice with 50 mM TRIS/HCl buffer (pH 7.4) and resuspended into the same buffer for storage.
The membranes were stored in small aliquots at -80° C. until use. The NEP-inhibitory activity was evaluated by using the following method.
Aliquots of the membrane suspension prepared as above described (concentration 5 μg/ml of proteins) were preincubated in the presence of an aminopeptidase inhibitor (Bestatin - 1 mM) for 10 minutes at 30° C.
[^3 H][Leu^5 ]-enkephaline (15 nM) and buffer TRIS/HCl pH 7.4 (50 mM) were added in order to obtain a final volume of 100 μl.
Incubation (20 minutes at 30° C.) was stopped by adding 0.1M HCl (100 μl).
The formation of the metabolite [^3 H]Tyr-Gly-Gly was quantified by chromatography on polystyrene columns (Porapak Q).
The percentage of inhibition of the metabolite formation in the membrane preparations treated with the compounds of formula I and the reference compounds in comparison to the untreated membrane preparations was expressed as IC50 value (nM).

Test [2] concerns the target T2, endothelin converting enzyme (ECE) (Oryctolagus cuniculus, UniProt A0A5F9CTJ8).
T2 construct: The left saphenous artery was removed and cleaned of the surrounding tissue; from tissue; host or cells: left saphenous artery rings of male New Zealand rabbits, with endothelium
T2 sequence (A0A5F9CTJ8 1-783): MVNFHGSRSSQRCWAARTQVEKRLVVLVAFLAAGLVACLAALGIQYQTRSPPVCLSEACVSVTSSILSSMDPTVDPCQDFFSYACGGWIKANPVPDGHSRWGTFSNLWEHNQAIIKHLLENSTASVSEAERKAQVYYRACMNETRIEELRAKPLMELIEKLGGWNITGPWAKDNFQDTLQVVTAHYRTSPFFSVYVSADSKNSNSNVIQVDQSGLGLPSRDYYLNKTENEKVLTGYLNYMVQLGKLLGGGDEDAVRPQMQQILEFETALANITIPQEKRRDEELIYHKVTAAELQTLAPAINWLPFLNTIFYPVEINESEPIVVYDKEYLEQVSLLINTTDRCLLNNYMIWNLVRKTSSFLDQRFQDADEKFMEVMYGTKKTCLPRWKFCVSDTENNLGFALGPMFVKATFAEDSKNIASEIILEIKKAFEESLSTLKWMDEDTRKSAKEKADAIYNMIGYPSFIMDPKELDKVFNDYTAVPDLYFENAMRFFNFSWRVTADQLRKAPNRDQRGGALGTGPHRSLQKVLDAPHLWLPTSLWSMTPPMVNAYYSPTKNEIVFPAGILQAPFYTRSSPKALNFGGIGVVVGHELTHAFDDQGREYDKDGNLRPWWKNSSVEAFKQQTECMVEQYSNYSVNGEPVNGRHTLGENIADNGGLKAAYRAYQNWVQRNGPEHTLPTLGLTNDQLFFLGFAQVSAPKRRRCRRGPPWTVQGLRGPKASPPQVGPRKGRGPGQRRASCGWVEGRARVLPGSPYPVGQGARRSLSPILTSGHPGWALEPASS
Briefly: In vitro ECE-inhibitory activity (human Big endothelin-induced contraction of rabbit left saphenous artery rings; inhibition of endothelin formation). It is filed as cell-based, Male New Zealand rabbits. The settings on record: human Big endothelin 3×10^-8 M, compound in contact 30 minutes, 37° C. The protocol:
b) In vitro ECE-inhibitory activity
The ECE-inhibitory activity in vitro was evaluated according to the method reported in the literature by M. Auget et al., Eur. J. Pharmacol., 224, (1992), 101-102.
Male New Zealand rabbits (2.5-3 Kg) were sacrificed with an excess of pentobarbital and blood was drawn.
The left saphenous artery was removed and cleaned of the surrounding tissue, cut into 2-3 mm length rings and suspended in 25 ml baths containing Krebs-Henseleit solution at 37° C. and oxygenated with O2 containing 5% CO2. This solution was composed of (mM); NaCl, 118; KCl, 4.7; CaCl2, 2.5; KH2 PO4, 1.2; MgSO4, 1.2; NaHCO3, […]; glucose, 11. The preparations were kept under tension and readjusted to 1 g during the equilibration period (1 hour).
After said period, the preparations were exposed to a submaximal concentration of norepinephrine 1 μM which was repeated every 30 minutes until the response was stable. A concentration of acetylcholine 10 μM on the contraction of norepinephrine verified the presence of the endothelium.
After 30 minutes from the last contraction due to norepinephrine, a concentration of human Big endothelin 3×10^-8 M was administered. After reaching the plateau the preparations were washed for 30 minutes and a concentration 1 μM of the compound to be tested or of its vehicle was administered keeping it in contact for 30 minutes, after that a concentration of Big endothelin 3×10^-8 M was administered again. The percentage of ECE-inhibition was expressed as IC50 value (nM).

SMILES strings stand for the structures.

Regarding `COc1cccc(CC(CS)C(=O)Nc2c[nH]c(C(=O)O)c2)c1` (stereo not drawn) [compound 13, N-(2-carboxy-4-pyrrolyl)-3-mercapto-2-(3-methoxybenzyl)-propanamide], the IC50 (as a rule, the concentration at which inhibition is half-maximal) turned out to be 5 nM in test [1] and 3 nM in test [2]. With `O=C(O)c1cc(NC(=O)C(CS)Cc2ccccc2)cs1` (stereo not drawn) [compound 2, N-(2-carboxy-4-thienyl)-3-mercapto-2-benzyl-propanamide], the IC50 in test [1] was 1.5 nM; in test [2] it was 2 nM. In the case of `O=C(O)Cc1csc(NC(=O)C(CS)Cc2ccccc2)n1` (stereo not drawn) [R-2, N-(4-carboxymethyl-2-thiazolyl)-3-mercapto-2-benzyl-propanamide, reference compound], the IC50 in test [1] turned out to be 8.8 nM.

As for `O=C(O)c1cc(NC(=O)C(CS)Cc2ccc(Cl)cc2)c[nH]1` (stereo not drawn) [compound 9, N-(2-carboxy-4-pyrrolyl)-2-(4-chlorobenzyl)-3-mercapto-propanamide], the IC50 came out at 2.7 nM in test [1] and 4 nM in test [2]. Turning to `O=C(O)c1cc(NC(=O)C(CS)Cc2cccnc2)cs1` (stereo not drawn) [compound 6, N-(2-carboxy-4-thienyl)-3-mercapto-2-(3-pyridylmethyl)-propanamide], the IC50 in test [1] turned out to be 12.6 nM; in test [2], 1 nM. `O=C(O)c1cc(NC(=O)C(CS)Cc2ccccc2)c[nH]1` (stereo not drawn) [compound 4, N-(2-carboxy-4-pyrrolyl)-3-mercapto-2-benzyl-propanamide]: the concentration for half-maximal inhibition (IC50) in test [1] worked out at 2.1 nM; in test [2] it was 2 nM. As for `O=C(O)c1cccc(NC(=O)C(CS)Cc2ccccc2)c1` (stereo not drawn) [R-1, N-(3-carboxyphenyl)-3-mercapto-2-benzyl-propanamide, reference compound], the IC50 in test [1] is 3.12 nM.
